Test results from ChEMBL document CHEMBL5380796, “Small Molecular Mimetics of Antimicrobial Peptides as a Promising Therapy To Combat Bacterial Resistance” (J Med Chem, 2023).
Converted amounts (≈) assume the structure as drawn. Non-standard residues stand in square brackets, D forms with d. Residues, ends and D or L forms follow the SMILES beside them. Dip = N[C@H](C(=O)O)C(c1ccccc1)c1ccccc1; 2Nal = N[C@@H](Cc1ccc2ccccc2c1)C(=O)O

Columns and labels:
Staphylococcus aureus [1] = assay: Antibacterial activity against Staphylococcus aureus assessed as bacterial growth inhibition; type: functional
Escherichia coli [2] = assay: Antibacterial activity against Escherichia coli assessed as bacterial growth inhibition; type: functional
Pseudomonas aeruginosa [3] = assay: Antibacterial activity against Pseudomonas aeruginosa assessed as bacterial growth inhibition; type: functional
Klebsiella pneumoniae [4] = assay: Antibacterial activity against Klebsiella pneumoniae assessed as bacterial growth inhibition; type: functional
Enterococcus faecalis = assay: Antibacterial activity against vancomycin- resistant Enterococcus faecalis ATCC 700802 assessed as bacterial growth inhibition incubated for 12 to 16 hrs by microtiter plate reader based analysis; type: functional; conditions: ATCC700802, time 12-16 hrs
[5] = Hemolytic activity in human RBC incubated for 10 mins by absorbance based analysis; type: toxicity, cell-based, Erythrocyte; conditions: red blood cells (erythrocytes)
Pseudomonas aeruginosa [6] = assay: Antibacterial activity against Pseudomonas aeruginosa ATCC 27853 assessed as bacterial growth inhibition incubated for 12 to 16 hrs by microtiter plate reader based analysis; type: functional; conditions: time 12-16 hrs
[7] = system: Staphylococcus epidermidis; assay: Antibacterial activity against methicillin-resistant Staphylococcus epidermidis RP62A assessed as bacterial growth inhibition incubated for 12 to 16 hrs by microtiter plate reader based analysis; type: functional; conditions: time 12-16 hrs
Staphylococcus aureus [8] = assay: Antibacterial activity against methicillin-resistant Staphylococcus aureus ATCC 33592 assessed as bacterial growth inhibition incubated for 12 to 16 hrs by microtiter plate reader based analysis; type: functional; conditions: time 12-16 hrs
Escherichia coli [9] = assay: Antibacterial activity against Escherichia coli ATCC 25922 assessed as bacterial growth inhibition incubated for 12 to 16 hrs by microtiter plate reader based analysis; type: functional; conditions: time 12-16 hrs
Escherichia coli [10] = assay: Antibacterial activity against Escherichia coli assessed as bacterial growth inhibition by broth microdilution method; type: functional
Staphylococcus aureus [11] = assay: Antibacterial activity against methicillin-resistant Staphylococcus aureus assessed as bacterial growth inhibition by broth microdilution method; type: functional
Staphylococcus aureus [12] = assay: Antibacterial activity against Staphylococcus aureus ATCC 25923 assessed as bacterial growth inhibition by microdilution assay; type: functional
Micrococcus luteus = assay: Antibacterial activity against Micrococcus luteus DSM 1790 assessed as bacterial growth inhibition by microdilution assay; type: functional
Staphylococcus aureus [13] = assay: Antibacterial activity against Staphylococcus aureus ATCC 25923 assessed as bacterial growth inhibition; type: functional
Staphylococcus aureus [14] = assay: Antibacterial activity against Staphylococcus aureus assessed as bacterial growth inhibition measured after 24 hrs by CLSI based micro broth double dilution method; type: functional
Escherichia coli [15] = assay: Antibacterial activity against Escherichia coli assessed as bacterial growth inhibition measured after 24 hrs by CLSI based micro broth double dilution method; type: functional
[16] = Cytotoxicity against human HepG2 cells assessed as reduction in cell viability; type: toxicity, cell-based
[17] = Cytotoxicity against mouse 3T3 cells assessed as reduction in cell viability; type: toxicity, cell-based; conditions: NIH3T3 cells
Staphylococcus aureus [18] = assay: Antibacterial activity against methicillin-resistant Staphylococcus aureus ATCC 33591 assessed as bacterial growth inhibition; type: functional
[19] = system: Staphylococcus epidermidis; assay: Antibacterial activity against methicillin-resistant Staphylococcus epidermidis RP62A assessed as bacterial growth inhibition; type: functional
Escherichia coli [20] = assay: Antibacterial activity against Escherichia coli ATCC 25922 assessed as bacterial growth inhibition; type: functional
Klebsiella pneumoniae [21] = assay: Antibacterial activity against Klebsiella pneumoniae ATCC 13383 assessed as bacterial growth inhibition; type: functional
Enterococcus = assay: Antibacterial activity against […] assessed as bacterial growth inhibition; type: functional
Pseudomonas aeruginosa [22] = assay: Antibacterial activity against Pseudomonas aeruginosa ATCC 27853 assessed as bacterial growth inhibition; type: functional; conditions: ATCC27853
Clostridioides difficile = assay: Antibacterial activity against Clostridium difficile UK6 assessed as bacterial growth inhibition; type: functional

Q: For COC(=O)[C@@H]1CCCCc2cc3ccccc3c(c2OC)-c2c(OC)c(cc3ccccc23)CC(NC(C)=O)C(=O)N[C@H](CCCCN)C(=O)N1 (some centres undefined), which MIC (Staphylococcus aureus [1]) is on record?
A: 15 µg/mL (≈ 21.5 µM)

Q: With CC(C)(C)c1cc(NC(=O)c2cc(OCCN)cc(C(=O)Nc3cc(C(C)(C)C)cc(NC(=O)[C@H](N)CCCNC(=N)N)c3SCCN)c2)c(SCCN)c(NC(=O)[C@H](N)CCCNC(=N)N)c1 as the compound, how does the MIC (Staphylococcus aureus [1]) read?
A: 12.5 µg/mL (≈ 12.8 µM)

Q: What about the MIC (Escherichia coli [2]) of the same compound?
A: 12.5 µg/mL (≈ 12.8 µM)

Q: For CC(C)NC(=O)N[C@H](CNC(=O)N[C@@H](CCCCN)CNC(=N)N[C@H](CNC(=O)N[C@H](CNC(=O)N[C@@H](CCCCN)CNC(=O)N[C@H](CNC(=O)N[C@@H](CCCCN)CNC(N)=O)Cc1c[nH]c2ccccc12)C(C)C)Cc1c[nH]c2ccccc12)C(C)C, which MIC (Pseudomonas aeruginosa [3]) is on record?
A: 256 µg/mL (≈ 203 µM)

Q: What about the MIC (Staphylococcus aureus [1]) of the same compound?
A: 32 µg/mL (≈ 25.4 µM)

Q: What about the MIC (Escherichia coli [2]) of the same compound?
A: 64 µg/mL (≈ 50.8 µM)

Q: What does the source list for CC(=O)c1cccc(C(=O)Nc2cc(C(C)(C)C)cc(NC(=O)c3cccc(C(=O)Nc4cc(C(C)(C)C)cc(N)c4SCCN)c3)c2SCCN)c1?
A: MIC (Escherichia coli [2]): 19 µg/mL (≈ 25.2 µM); MIC (Klebsiella pneumoniae [4]): 66 µg/mL (≈ 87.4 µM)

Q: Which MIC (Enterococcus faecalis) does the source give for CCCCCCCCCCCCCCCC(=O)N[C@@H](CCCCN)C(=O)N[C@@H](Cc1ccccc1)CN(CC(N)=O)C(=O)CCCN here?
A: 2 µg/mL (≈ 3.04 µM)

Q: What about the HC50 at 10 min [5] of the same compound?
A: 150 µg/mL

Q: What about the MIC (Pseudomonas aeruginosa [6]) of the same compound?
A: 2 µg/mL (≈ 3.04 µM)

Q: What about the MIC [7] of the same compound?
A: 2 µg/mL (≈ 3.04 µM)

Q: What about the MIC (Staphylococcus aureus [8]) of the same compound?
A: 2 µg/mL (≈ 3.04 µM)

Q: And the MIC (Escherichia coli [9])?
A: 4 µg/mL (≈ 6.07 µM)

Q: With COC(=O)[C@H](CCCNC(=N)N)NC(=O)[C@H](Cc1c(C(C)(C)C)[nH]c2c(C(C)(C)C)cc(C(C)(C)C)cc12)NC(=O)[C@@H](N)CCCNC(=N)N as the compound, how does the MIC (Staphylococcus aureus [1]) read?
A: 5 µg/mL (≈ 7.15 µM)

Q: And the MIC (Escherichia coli [2])?
A: 20 µg/mL (≈ 28.6 µM)

Q: Which MIC (Escherichia coli [10]) does the source give for N=C(N)NCCC[C@@H]1NC(=O)[C@H](CCCNC(=N)N)NC(=O)[C@H](CCCNC(=N)N)NC(=O)[C@H](Cc2ccc3ccccc3c2)NC(=O)[C@H](Cc2ccc3ccccc3c2)NC(=O)[C@H](Cc2ccc3ccccc3c2)NC(=O)[C@H](CCCNC(=N)N)NC1=O (cyclo(RRRR[2Nal][2Nal][2Nal])) here?
A: 12.5 µg/mL (≈ 10.3 µM)

Q: What about the MIC (Staphylococcus aureus [11]) of the same compound?
A: 3.1 µg/mL (≈ 2.55 µM)

Q: Which MIC (Staphylococcus aureus [1]) does the source give for CC(C)(C)c1cc(C(C)(C)C)c2[nH]c(C(C)(C)C)c(C[C@H](NC(=O)[C@@H](N)CCCNC(=N)N)C(=O)N[C@@H](CCCNC(=N)N)C(=O)NCCc3ccccc3)c2c1 [LTX-109] here?
A: 2.5 µg/mL (≈ 3.17 µM)

Q: And the MIC (Escherichia coli [2])?
A: 7.5 µg/mL (≈ 9.52 µM)

Q: With CC(C)(C)c1cc(C(C)(C)C)c2[nH]c(C(C)(C)C)c(C[C@H](N)C(=O)N[C@@H](CCCNC(=N)N)C(=O)NCc3ccccc3)c2c1 as the compound, how does the MIC (Staphylococcus aureus [1]) read?
A: 2.5 µg/mL (≈ 4.05 µM)

Q: What about the MIC (Escherichia coli [2]) of the same compound?
A: 10 µg/mL (≈ 16.2 µM)

Q: For CC(C)CCOC(=O)[C@H](CC(C)C)NC(=O)[C@@H](CCCNC(=N)N)NC(=O)[C@@H](CCCCN)NC(=O)COc1ccc2ccccc2c1-c1c(OCCC(C)C)ccc2ccccc12, which MIC (Staphylococcus aureus [1]) is on record?
A: 2 µg/mL (≈ 2.27 µM)

Q: With CC(C)(C)c1ccc(CC(N)C(=O)NC(CCCNC(=N)N)C(=O)Nc2cc(NC(=O)C(CCCNC(=N)N)NC(=O)C(N)Cc3ccc(C(C)(C)C)cc3)cc(C(N)=O)c2)cc1 (centres undefined) as the compound, how does the MIC (Staphylococcus aureus [12]) read?
A: 1.9 µg/mL

Q: And the MIC (Micrococcus luteus)?
A: 1.9 µg/mL

Q: What about the MIC (Staphylococcus aureus [13]) of the same compound?
A: 1.9 µg/mL (≈ 2.18 µM)

Q: For CCCOc1c2cc(C[N+](C)(C)C)cc1Cc1cc(C[N+](C)(C)C)cc(c1OCCC)Cc1cc(C[N+](C)(C)C)cc(c1OCCC)Cc1cc(C[N+](C)(C)C)cc(c1OCCC)C2, which MIC (Staphylococcus aureus [14]) is on record?
A: 16 µg/mL

Q: What about the MIC (Escherichia coli [15]) of the same compound?
A: 16 µg/mL

Q: What does the source list for H-WRWRW-NH2?
A: MIC (Staphylococcus aureus [1]): 10 µg/mL; MIC (Escherichia coli [2]): 15 µg/mL

Q: What does the source list for COc1cc(OC)c(C(=O)Nc2cc(C(F)(F)F)cc(NC(=O)CCCCNC(=N)N)c2SCCN)cc1C(=O)Nc1cc(C(F)(F)F)cc(NC(=O)CCCCNC(=N)N)c1SCCN?
A: MIC (Pseudomonas aeruginosa [3]): 13 µg/mL (≈ 13.3 µM); MIC (Staphylococcus aureus [1]): 0.2 µg/mL (≈ 0.205 µM); EC50 [16]: > 2000 µg/mL; MIC (Escherichia coli [2]): 3.1 µg/mL (≈ 3.18 µM); EC50 [17]: > 2000 µg/mL

Q: For CCCCCCN1C(=N)N(CC(=O)Nc2cccc(NC(=O)CN3C[C@H](Cc4ccccc4)N(CCCCCC)C3=N)c2)C[C@@H]1Cc1ccccc1, which MIC (Staphylococcus aureus [18]) is on record?
A: 0.16 µg/mL (≈ 0.226 µM)

Q: And the MIC [19]?
A: 0.75 µg/mL (≈ 1.06 µM)

Q: What about the MIC (Escherichia coli [20]) of the same compound?
A: 1.5 µg/mL (≈ 2.12 µM)

Q: What about the MIC (Klebsiella pneumoniae [21]) of the same compound?
A: 1.5 µg/mL (≈ 2.12 µM)

Q: What about the MIC (Enterococcus) of the same compound?
A: 0.75 µg/mL (≈ 1.06 µM)

Q: What about the MIC (Pseudomonas aeruginosa [22]) of the same compound?
A: 6 µg/mL (≈ 8.49 µM)

Q: And the MIC (Clostridioides difficile)?
A: 1 µg/mL (≈ 1.41 µM)

Q: What does the source list for N=C(N)NCCC[C@@H]1NC(=O)[C@H](CCCNC(=N)N)NC(=O)[C@H](CCCNC(=N)N)NC(=O)[C@H](C(c2ccccc2)c2ccccc2)NC(=O)[C@H](C(c2ccccc2)c2ccccc2)NC(=O)[C@H](C(c2ccccc2)c2ccccc2)NC(=O)[C@H](CCCNC(=N)N)NC1=O (cyclo(RRRR[Dip][Dip][Dip]))?
A: MIC (Escherichia coli [10]): 12.5 µg/mL (≈ 9.66 µM); MIC (Staphylococcus aureus [11]): 3.1 µg/mL (≈ 2.39 µM)
